For one assay, the system named is Candida albicans. The experiment in a line: Antifungal activity against Candida albicans. The format is functional.
For another assay, the system named is Umbelopsis ramanniana. The experiment in a line: Antifungal activity against Mortierella ramanniana. Type of assay: functional.
Another assay deals with Penicillium chrysogenum. Description: Antifungal activity against Penicillium chrysogenum. Type of assay: functional.
In another assay the test system is P388. Description: Cytotoxicity against mouse P388 cells. Type of assay: functional, cell-based.

Molecules are shown by their SMILES. Converted amounts (≈) assume the structure as drawn.

Consider `C[C@H]1/C=C/C=C/C=C/C=C/[C@H](O[C@@H]2O[C@H](C)[C@@H](O)[C@H](N)[C@@H]2O)C[C@@H]2O[C@](O)(C[C@@H](O)CC(=O)C(=O)/C=C/C(=O)O[C@@H]1C)C[C@H](O)[C@H]2C(=O)O` [TETRIN C], for which the minimal inhibitory concentration (MIC) – broadly, the smallest concentration in the dilution series that meets the test's criterion for growth inhibition – in the assay with Candida albicans came to 10 mg/L (≈ 14.4 µM); with Umbelopsis ramanniana, 5 mg/L (≈ 7.21 µM); in the assay with Penicillium chrysogenum it was 10 mg/L (≈ 14.4 µM). In the assay on P388, the IC50 (as a rule, the midpoint of a concentration-inhibition curve) worked out at 4.6 mg/L (≈ 6.63 µM).
